The values below are quoted from earlier work in patent US12582603B2 (NTC S.r.l., priority 2017, dated 2026).

For the data set the following is noted: at a pH of 6.4.

With `Brc1c(N=C2NCCN2)ccc2nccnc12.O=C(O)C(O)C(O)C(=O)O` [Brimonidine, 5-Bromo-6-(2-imidazolidinylideneamino)quinoxaline L-tartrate], the Fraction ionized result is recorded as “about 90%”.
